Test results: PMC7944402, “Resin-acid derivatives bind to multiple sites on the voltage-sensor domain of the Shaker potassium channel” (The Journal of General Physiology, 2021)
Values joined by “and” are separate entries in the source; they are usually repeats but may differ in a detail not shown here. Equal entries are not always repeated.

Target: T1, Shaker KV channel M356R/A359R/R362Q/W454A (Drosophila melanogaster, UniProt P08510, A359R/DEL6-46/M356R/R362Q/W454A)
T1 construct: expressed in transfected cells; host or cells: Xenopus laevis oocytes (RNA injection)
T1 sequence (P08510 with tags, fused parts or gaps DEL6-46/M356R/A359R/R362Q/W454A): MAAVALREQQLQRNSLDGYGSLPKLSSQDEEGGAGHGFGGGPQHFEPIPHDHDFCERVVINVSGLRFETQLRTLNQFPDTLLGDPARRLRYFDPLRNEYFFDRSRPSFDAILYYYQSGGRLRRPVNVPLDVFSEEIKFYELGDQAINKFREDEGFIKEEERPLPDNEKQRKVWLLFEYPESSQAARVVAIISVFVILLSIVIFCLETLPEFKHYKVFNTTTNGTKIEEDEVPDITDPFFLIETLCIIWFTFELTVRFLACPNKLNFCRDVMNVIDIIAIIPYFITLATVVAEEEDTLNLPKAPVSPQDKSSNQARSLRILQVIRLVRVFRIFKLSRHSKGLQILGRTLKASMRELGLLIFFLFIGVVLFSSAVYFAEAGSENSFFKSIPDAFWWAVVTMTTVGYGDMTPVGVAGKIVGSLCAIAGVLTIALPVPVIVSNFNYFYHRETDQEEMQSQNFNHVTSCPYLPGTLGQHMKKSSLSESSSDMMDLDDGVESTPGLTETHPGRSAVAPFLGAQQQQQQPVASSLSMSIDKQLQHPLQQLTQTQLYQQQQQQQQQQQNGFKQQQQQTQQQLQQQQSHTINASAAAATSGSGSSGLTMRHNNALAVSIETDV
Assay: Two-electrode voltage clamp in Xenopus oocytes: 2R motif/R362Q/W454A
Format: cell-based
Conditions: 100 μM, pH 9.0, M356R/A359R/R362Q/W454A
From the text: The Shaker H4 channel (GenBank accession no. NM_167595.3; [Kamb et al., 1987]), with removed N-type inactivation due to a Δ6-46 deletion (ShH4IR, in Bluescript II KS(+) plasmid; [Hoshi et al., 1990]), is referred to as the WT Shaker KV channel. Addition of two positively charged arginines (M356R/A359R) at the extracellular top of the voltage sensor increases the effect of charged lipophilic compounds ([Ottosson et al., 2014], [2015], [2017]). […] However, for the resin-acid derivatives studied in the present investigation, R362 reduced the effect. Therefore, we specifically refer to the two added arginines just outside S4 (M356R/A359R) as the 2R motif. […]
Electrophysiological experiments were made 1–6 d after RNA injection. K^+ currents were measured with the two-electrode voltage-clamp technique (GeneClamp 500B amplifier; Axon Instruments) as described previously ([Ottosson et al., 2015]; [Silverå Ejneby et al., 2018]). […]
The conductance, G(V), was calculated as G(V)=I/(V−VK), (1) where I is the steady-state current measured at the end of each test-voltage sweep (100 ms after onset; Clampfit 10.5; Molecular Devices), V is the absolute membrane voltage, and VK is the reversal potential for K^+ ions (set to −80 mV). […] The resin-acid–induced G(V) shift was calculated as V1/2 (compound) − V1/2 (control). The relative change in GMAX was calculated as GMAX (compound) / GMAX (control). […]

C[C@@]1(C(=O)O)CCC[C@]2(C)c3cc(Cl)c(Cl)c(Cl)c3CC[C@@H]12 [Wu50]
GMAX (rel.): 1.50 rel.
ΔVG(V) (G(V) shift): −56.6 ± 5.8 mV and -56.6 mV
